Test results from patent US20120302573A1, “METHODS OF INHIBITING PRO MATRIX METALLOPROTEINASE ACTIVATION” (priority 2011, published 2012).
Where a name gives a salt, the structure may show the parent alone.

How the values were obtained:
[1] = molecular target: T1, full-length proMMP9(1-707) activation by catalytic MMP3 (Homo sapiens, UniProt P14780, R574P); assay: proMMP9/MMP3 P126 Activation Assay; type: biochemical; design: made in house; host or cells: E. coli (MMP3); settings: proMMP9 from HEK293 cells
T1 sequence (P14780 20-707 R574P): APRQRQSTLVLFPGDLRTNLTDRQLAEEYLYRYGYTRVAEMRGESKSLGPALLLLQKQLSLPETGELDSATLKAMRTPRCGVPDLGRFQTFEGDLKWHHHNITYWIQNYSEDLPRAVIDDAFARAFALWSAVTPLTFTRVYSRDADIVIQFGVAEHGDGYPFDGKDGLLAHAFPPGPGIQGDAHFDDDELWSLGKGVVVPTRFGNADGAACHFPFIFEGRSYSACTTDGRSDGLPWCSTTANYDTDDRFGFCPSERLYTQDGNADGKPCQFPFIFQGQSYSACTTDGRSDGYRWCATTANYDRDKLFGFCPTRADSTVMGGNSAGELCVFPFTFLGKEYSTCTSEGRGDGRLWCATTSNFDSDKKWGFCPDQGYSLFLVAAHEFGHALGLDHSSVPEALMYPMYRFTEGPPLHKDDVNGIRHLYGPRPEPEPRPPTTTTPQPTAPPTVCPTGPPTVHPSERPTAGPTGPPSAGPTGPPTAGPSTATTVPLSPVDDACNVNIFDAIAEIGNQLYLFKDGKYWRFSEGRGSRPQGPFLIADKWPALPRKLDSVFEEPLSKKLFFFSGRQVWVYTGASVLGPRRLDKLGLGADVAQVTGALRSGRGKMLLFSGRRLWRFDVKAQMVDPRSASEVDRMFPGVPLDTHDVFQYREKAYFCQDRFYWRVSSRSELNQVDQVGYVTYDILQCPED
Procedure: The assay buffer employed was 50 mM Hepes, pH 7.5, 10 mM CaCl2, 0.05% Brij-35. DMSO was included at a final concentration of 2%, arising from the test compound addition. […] The reaction volume was 50 μL. […] Initial velocities were plotted by use of a four-parameter logistics equation (GraphPad Prism® software) for determination of IC50.

[2] = molecular target: T2, human catalytic MMP3, MMP3(100-265) (Homo sapiens, UniProt P08254); assay: Catalytic MMP3 enzyme assay (fluorogenic peptide M2110); type: biochemical
T2 construct: Catalytic MMP3 was amino acids 100-265 of human MMP3 from UniProtKB/Swiss-Prot P08254; 6x-Histidine tag (C); made in house; host or cells: E. coli
T2 sequence (P08254 with tags, fused parts or gaps): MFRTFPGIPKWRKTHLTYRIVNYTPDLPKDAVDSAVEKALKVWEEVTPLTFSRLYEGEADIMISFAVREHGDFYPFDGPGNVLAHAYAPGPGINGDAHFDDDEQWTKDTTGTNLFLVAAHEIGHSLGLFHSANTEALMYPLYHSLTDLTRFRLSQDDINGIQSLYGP
Procedure: Compounds were assessed for inhibition of human catalytic MMP3, MMP3(100-265) (SEQ ID NO:8), using a peptide (Mca-RPKPVE-Nva-WRK(Dnp)-NH2, Bachem M2110) that fluoresces upon cleavage by catalytic MMP3. […] The reaction volume was 100 μL. […] Final concentrations employed were 20 nM catalytic MMP3 and 20 μM M2110 substrate.

[3] = molecular target: T3, proMMP9(20-445;ΔFnII) (SEQ ID NO:6) (Homo sapiens, UniProt P14780, DEL216-390); assay: ThermoFluor binding assay with proMMP9(20-445;ΔFnII)
T3 construct: amino acid pairs including: 29-215/391-444, 67-215/391-444, and 20-215/391-445, respectively; start methionine (N); made in house; host or cells: E. coli BL21(DE3) RIL
T3 sequence (P14780 with tags, fused parts or gaps DEL216-390): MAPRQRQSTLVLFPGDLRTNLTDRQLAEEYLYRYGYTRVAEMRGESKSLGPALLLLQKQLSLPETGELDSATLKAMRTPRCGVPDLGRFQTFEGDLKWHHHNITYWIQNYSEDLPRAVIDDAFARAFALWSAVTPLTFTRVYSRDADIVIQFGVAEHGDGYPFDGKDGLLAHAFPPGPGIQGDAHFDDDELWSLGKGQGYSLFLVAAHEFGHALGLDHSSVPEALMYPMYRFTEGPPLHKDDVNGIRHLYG
Summary of the method: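 Thermal shift with 1,8-ANS dye, heating from 40 to 90 °C at 1 °C/min. Fluorescence excited at 380–400 nm and read at 500±25 nm. Protein was buffer-exchanged by desalting, and binding fitted using heat capacity and thermodynamic parameters from DSC and ThermoFluor dosing data, with DMSO reference wells.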

human catalytic MMP9 = molecular target: T4, human catalytic MMP9 (Homo sapiens, UniProt P14780); assay: Catalytic MMP9 enzyme assay (fluorogenic peptide P-126); type: biochemical
T4 construct: purchased BioMol SE-244
T4 sequence (P14780 107-445 limits assumed): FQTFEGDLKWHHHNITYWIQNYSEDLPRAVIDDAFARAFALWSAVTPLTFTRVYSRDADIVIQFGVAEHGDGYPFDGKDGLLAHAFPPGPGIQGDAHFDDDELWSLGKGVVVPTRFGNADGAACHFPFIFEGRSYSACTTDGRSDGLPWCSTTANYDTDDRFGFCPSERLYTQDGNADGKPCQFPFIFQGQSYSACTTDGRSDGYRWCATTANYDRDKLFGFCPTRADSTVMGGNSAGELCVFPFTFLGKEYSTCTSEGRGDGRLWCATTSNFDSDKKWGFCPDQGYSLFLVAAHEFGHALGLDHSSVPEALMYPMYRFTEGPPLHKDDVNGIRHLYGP
Procedure: The assay buffer employed was 50 mM Hepes, pH 7.5, 10 mM CaCl2, 0.05% Brij-35. DMSO was included at a final concentration of 2%, arising from the test compound addition. The reaction volume was 100 μL. […] Initial velocities were plotted by use of a four-parameter logistics equation (GraphPad Prism® software) for determination of IC50, if required.

[4] = molecular target: T5, proMMP9(67-444;ΔFnII) (SEQ ID NO:5) (Homo sapiens, UniProt P14780, DEL216-390); assay: ThermoFluor binding assay with proMMP9(67-444;ΔFnII)
T5 construct: amino acid pairs including: 29-215/391-444, 67-215/391-444, and 20-215/391-445, respectively; start methionine (N); made in house; host or cells: E. coli BL21(DE3) RIL
T5 sequence (P14780 with tags, fused parts or gaps DEL216-390): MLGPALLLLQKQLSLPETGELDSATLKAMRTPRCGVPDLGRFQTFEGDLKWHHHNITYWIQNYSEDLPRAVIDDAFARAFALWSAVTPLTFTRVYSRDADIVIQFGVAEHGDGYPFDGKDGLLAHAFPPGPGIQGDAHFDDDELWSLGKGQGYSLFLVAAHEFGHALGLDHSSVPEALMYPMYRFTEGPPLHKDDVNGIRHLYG
Summary of the method: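 Thermal shift (ThermoFluor) with 1,8-ANS dye; protein desalted by buffer exchange before use. Samples heated 40 to 90 °C at 1 °C/min, excitation 380-400 nm, emission 500±25 nm. Binding fitted using unfolding thermodynamic parameters from DSC and ThermoFluor dosing data.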

[5] = molecular target: T6, proMMP13(1-268) (SEQ ID NO:7) (Homo sapiens, UniProt P45452); assay: ThermoFluor binding assay with proMMP13(1-268)
T6 construct: 6x-histidine tag (C); made in house; host or cells: HEK293
Procedure: The ThermoFluor® (TF) assay is a 384-well plate-based binding assay that measures thermal stability of proteins (Biomol Screen 2001, 6, 429-40; Biochemistry 2005, 44, 5258-66). The experiments were carried out using instruments available from Johnson & Johnson Pharmaceutical Research & Development, LLC. TF dye used in all experiments was […] (1,8-ANS) (Invitrogen: A-47).
Compounds were arranged in a pre-dispensed plate (Greiner Bio-one: 781280), wherein compounds were serially diluted in 100% DMSO across 11 columns within a series. Columns 12 and 24 were used as DMSO reference and contained no compound. For multiple compound concentration-response experiments, the compound aliquots ([…]) were robotically predispensed directly into black 384-well polypropylene PCR microplates (Abgene: TF-0384/k) using a Cartesian Hummingbird liquid handler (DigiLab, Holliston, Mass.). Following compound dispense, protein and dye solutions were added to achieve the final assay volume of 3 μL. The assay solutions were overlayed with 1 μL of silicone oil (Fluka, type DC 200: 85411) to prevent evaporation.
Assay plates were robotically loaded onto a thermostatically controlled PCR-type thermal block and then heated from 40 to 90° C. at a ramp-rate of 1° C./min for all experiments. Fluorescence was measured by continuous illumination with UV light (Hamamatsu LC6) supplied via fiber optics and filtered through a band-pass filter (380-400 nm; >6 OD cutoff). Fluorescence emission of the entire 384-well plate was detected by measuring light intensity using a CCD camera (Sensys, Roper Scientific) filtered to detect 500±25 nm, resulting in simultaneous and independent readings of all 384 wells. A single image with 20-sec exposure time was collected at each temperature, and the sum of the pixel intensity in a given area of the assay plate was recorded vs temperature and fit to standard equations to yield the Tm (J Biomol Screen 2001, 6, 429-40).
Thermodynamic parameters necessary for fitting compound binding for each proMMP were estimated by differential scanning calorimetry (DSC) and from ThermoFluor® data. The heat capacity of unfolding for each protein was estimated from the molecular weight and from ThermoFluor® dosing data.
The proMMP13(1-268) (SEQ ID NO:7) protein sample preparations included a desalting buffer exchange step via a PD-10 gravity column (GE Healthcare). The desalting buffer exchange was performed prior to diluting the protein to the final assay concentration of 3.5 μM. The concentration of proMMP13(1-268) (SEQ ID NO:7) was estimated spectrophotometrically based on a calculated extinction coefficient of ε280=37000 M^−1 cm^−1, a calculated molecular weight of 30.8 kDa, and calculated pI of 5.33. ThermoFluor® reference conditions were defined as follows: 100 μg/mL proMMP13(1-268) (SEQ ID NO:7), 25 μM 1,8-ANS, pH 7.0 Buffer (50 mM HEPES pH 7.0, 100 mM NaCl, 0.001% Tween-20, 2.5 mM MgCl2, 300 μM CaCl2). The thermodynamic parameters for proMMP13(1-268) (SEQ ID NO:7) are as follows: Tm (° C.)=67 (+/−0.1), ΔUH(Tm) (cal mol^−1)=107000(+/−5000), ΔUS(Tm) (cal mol^−1 K^−1)=318, ΔUCp (cal mol^−1 K^−1)=2600.

[6] = molecular target: T1, full-length proMMP9(1-707) activation by catalytic MMP3; assay: ProMMP9/MMP3 DQ Gelatin Activation Assay;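 note: readout is fluorescence of quenched fluorescein gelatin cut by activated MMP9, 30 min activation at 37 °C, inhibition relative to DMSO-only controls with EDTA as blank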; type: biochemical; design: made in house; host or cells: COS-1 (proMMP9); E. coli (MMP3); settings: proMMP9 from COS-1 cells; read-out: ProMMP9/MMP3 DQ gel, IC50
Procedure: Compounds were assessed for inhibition of proMMP9 activation by catalytic MMP3 using a quenched fluorescein gelatin substrate (DQ gelatin, Invitrogen D12054) that fluoresces upon cleavage by activated MMP9. The assay buffer employed was 50 mM Hepes, pH 7.5, 10 mM CaCl2, 0.05% Brij-35. DMSO was included at a final concentration of 0.2%, arising from the test compound addition. […] Test compounds in DMSO were diluted 250-fold in assay buffer at 4× the final concentration. The reaction volume was 12 μL, and all reactions were conducted in triplicate. […] The plate was sealed and incubated for 30 min at 37° C. […] Immediately following the 30 min incubation, 4 μL of 40 μg/ml DQ gelatin substrate was added (freshly diluted in assay buffer), and incubated for 10 min at room temperature. […] Reactivity of residual MMP3 towards DQ gelatin was minimal under these conditions. Percent inhibition of test compounds were determined from suitable positive (DMSO only in assay buffer) and negative (EDTA added prior to reaction initiation) controls. Plots of % inhibition vs. test compound concentration were fit to a four-parameter logistics equation (GraphPad Prism® software) for determination of IC50.

Work on `COc1ccc(F)cc1Nc1nc(-c2sc(N)nc2C)cs1` [Example 4, N^2-(5-Fluoro-2-methoxy-phenyl)-4′-methyl-[4,5′]bithiazolyl-2,2′-diamine.HBr] yielded an IC50 [1] of 1.5 µM, an IC50 [2] of over 50 µM and a Kd [3] of 1.7 µM. For the same molecule, the IC50 (human catalytic MMP9) was over 50 µM and the Kd [4] was 0.254 µM.
Work on `CC(=O)Nc1nc(C)c(-c2csc(Nc3cc(F)ccc3OC(C)C)n2)s1` [Example 12, N-[2-(5-Fluoro-2-isopropoxy-phenylamino)-4′-methyl-[4,5′]bithiazolyl-2′-yl]-acetamide] yielded an IC50 [1] of 3.6 µM, a Kd [3] of 13.8 µM and a Kd [5] of 12 µM. The Kd [4] was 2.92 µM.
For `Cc1nc(C)c(-c2csc(Nc3cc(F)ccc3OC(C)C)n2)s1` [Example 13, (2′,4′-Dimethyl-[4,5′]bithiazolyl-2-yl)-(5-fluoro-2-isopropoxy-phenyl)-amine], the IC50 [1] was about 2 µM, the Kd [3] was over 95 µM and the Kd [5] was over 95 µM. The Kd [4] was over 95 µM.
Molecule `COc1ccc(F)cc1Nc1nc(-c2cccnc2)cs1` [Example 16, (5-Fluoro-2-methoxy-phenyl)-(4-pyridin-3-yl-thiazol-2-yl)-amine.HBr] has an IC50 [1] of 3.6 µM, a Kd [3] of over 95 µM and a Kd [5] of over 95 µM. It also gave a Kd [4] of 8.9 µM.
With `COc1ccc(Br)cc1Nc1nc(-c2sc(NC(C)=O)nc2C)cs1` [Example 21, N-[2-(5-Bromo-2-methoxy-phenylamino)-4′-methyl-[4,5′]bithiazolyl-2′-yl]-acetamide.HBr] the IC50 [1] was 2.8 µM, the Kd [3] was 4.48 µM and the Kd [5] was 3.57 µM. For the same molecule, the Kd [4] was 0.14 µM.
With `COc1ccccc1Nc1nc(-c2sc(NS(C)(=O)=O)nc2C)cs1` [Example 34, N-[2-(2-Methoxy-phenylamino)-4′-methyl-[4,5′]bithiazolyl-2′-yl]-methanesulfonamide] the IC50 [1] was 4 µM, the Kd [3] was 3.64 µM and the IC50 [6] was 2.3 µM. For the same molecule, the Kd [5] was 43.5 µM and the Kd [4] was 0.82 µM.
`COc1ccccc1Nc1nc(-c2sc(C)cc2C)cs1` [Example 45, [4-(3,5-Dimethyl-thiophen-2-yl)-thiazol-2-yl]-(2-methoxy-phenyl)-amine.TFA] gave an IC50 [1] of over 50 µM, a Kd [3] of 1.65 µM and an IC50 [6] of over 20 µM. It also gave a Kd [5] of over 95 µM and a Kd [4] of 10 µM.
`COc1ccc(Cl)cc1Nc1nc(-c2sc(NC(C)=O)nc2C)cs1` [Example 59, N-[2-(5-Chloro-2-methoxy-phenylamino)-4′-methyl-[4,5′]bithiazolyl-2′-yl]-acetamide] was tested, and the IC50 [1] was 0.52 µM, the IC50 [2] was over 50 µM and the Kd [3] was 29.2 µM. It also gave an IC50 (human catalytic MMP9) of over 50 µM, an IC50 [6] of 0.34 µM and a Kd [4] of 0.583 µM.
For `COc1ccccc1Nc1nc(-c2sc(NC(C)=O)nc2C)cs1` [Example 65, N-[2-(2-Methoxy-phenylamino)-4′-methyl-[4,5′]bithiazolyl-2′-yl]-acetamide], the IC50 [2] was over 50 µM and the Kd [5] was 37.5 µM.
In the case of `COc1ccc(Cl)cc1Nc1nc(-c2sc(N)nc2C)cs1` [Example 67, N^2-(5-Chloro-2-methoxy-phenyl)-4′-methyl-[4,5′]bithiazolyl-2,2′-diamine], the IC50 [1] is reported as 2.1 µM, the IC50 [2] is reported as over 50 µM and the Kd [3] is reported as 2.43 µM. The IC50 (human catalytic MMP9) was over 50 µM and the Kd [4] was 0.318 µM.
`COc1ccccc1Nc1nc(-c2sc(N)nc2C)cs1` [Example 68, N^2-(2-Methoxy-phenyl)-4′-methyl-[4,5′]bithiazolyl-2,2′-diamine] showed an IC50 [1] of 2.5 µM, a Kd [3] of 3.76 µM and an IC50 [6] of 3.1 µM. For the same molecule, the Kd [5] was 14.5 µM and the Kd [4] was 1.12 µM.
`Brc1ccc(Nc2nc(-c3cccnc3)cs2)cn1` [Example 70, (6-Bromo-pyridin-3-yl)-(4-pyridin-3-yl-thiazol-2-yl)-amine] showed an IC50 [1] of over 20 µM, a Kd [3] of 5.79 µM and a Kd [5] of 0.668 µM. It also gave a Kd [4] of 12 µM.
